Results as given in patent US7868026B2, “Therapeutic compounds” (Pfizer Inc., priority 2005, dated 2011).
Read-outs that look alike come from different tables or passages of the source.

Columns and labels:
Assay type in all cases: biochemical
CYP3A4 [1] = target: T1, CYP3A4 (Homo sapiens, UniProt P08684); test: Determination of compound Kiapp against recombinant CYP3A4 enzyme (BFC fluorescent substrate)
In short: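 Recombinant CYP3A4 (5.5 or 8 nM, with or without b5 depending on source) pre-incubated with inhibitor ≥30 min at room temperature in 100 mM sodium phosphate pH 7.0, 5 mM TCEP, 2% DMF. Reaction started with 200 uM NADPH and 5 uM BFC; initial fluorescence rates over 5 min fitted to Morrison tight-binding (non-partial) or Szedlacsek (partial) equations for Kiapp.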

CYP3A4 [2] = target: T1, CYP3A4; test: Determination of IC50 against CYP3A4 by measurement of inhibition of testosterone metabolism (human liver microsomes, 6-β-OH-testosterone by LC-MS/MS); parameters: 0.1 mg/mL human liver microsomes; details: read-out: IC50 (Testo.)
Protocol: 2. Determination of IC50 Against CYP3A4 by Measurement of Inhibition of Testosterone Metabolism
This assay was performed using a standard 96 well plate design. […] The incubation substrate mix contains 25 μM testosterone, 0.1 mg/mL human liver microsomes, 1 mM NADPH, and potassium phosphate buffer (100 mM, pH 7.4). Quantitation of metabolite peak area ratio against an internal standard is determined by LC-MS/MS analysis. The production of 6-β-OH-testosterone from testosterone metabolism is determined after incubation for eight minutes by comparison to a standard curve generated for the metabolite
Samples were analyzed in the MRM mode using a Sciex API 3000 mass spectrometer (Applied Biosystems, Foster City, Calif.) with a Paradigm MS4 binary pump (Michrom BioResources Inc., Auburn, Calif.) and a LEAP CTC PAL autosampler (LEAP Technologies, Carrboro, N.C.). A Phenomenex Synergi, 4μ, Polar-RP, 10×2.0 mm column (Phenomenex, Torrance, Calif.) was used for separation with a mobile phase composition of: 0.1% formic acid in water (A) and: 0.1% formic acid in methanol (B). The following gradient was used: […]
The sample injection volume was 10 μL and flow was split post-column with 0.4 mL/min going to the mass spectrometer. Analysis was performed using the following API 3000 mass spectrometer settings: […]

CYP3A4 [3] = target: T1, CYP3A4; test: Determination of IC50 against CYP3A4 by measurement of inhibition of midazolam metabolism (human liver microsomes, 1-hydroxymidazolam by LC-MS/MS); parameters: 0.1 mg/mL human liver microsomes; details: 2 μM midazolam, 0.1 mg/mL human liver microsomes
In short: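 Human liver microsomes (0.1 mg/mL) incubated 8 min with 2 μM midazolam and 1 mM NADPH in 100 mM potassium phosphate, pH 7.4. 1-Hydroxymidazolam quantified by LC-MS/MS (MRM) as peak area ratio to internal standard against a metabolite standard curve.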

[4] = Baculo. enzyme preparation, read-out: Kiapp (BFC, Baculo.)
[5] = Super. enzyme preparation, read-out: Kiapp (BFC, Super.)

T1 sequence (P08684 whole entry): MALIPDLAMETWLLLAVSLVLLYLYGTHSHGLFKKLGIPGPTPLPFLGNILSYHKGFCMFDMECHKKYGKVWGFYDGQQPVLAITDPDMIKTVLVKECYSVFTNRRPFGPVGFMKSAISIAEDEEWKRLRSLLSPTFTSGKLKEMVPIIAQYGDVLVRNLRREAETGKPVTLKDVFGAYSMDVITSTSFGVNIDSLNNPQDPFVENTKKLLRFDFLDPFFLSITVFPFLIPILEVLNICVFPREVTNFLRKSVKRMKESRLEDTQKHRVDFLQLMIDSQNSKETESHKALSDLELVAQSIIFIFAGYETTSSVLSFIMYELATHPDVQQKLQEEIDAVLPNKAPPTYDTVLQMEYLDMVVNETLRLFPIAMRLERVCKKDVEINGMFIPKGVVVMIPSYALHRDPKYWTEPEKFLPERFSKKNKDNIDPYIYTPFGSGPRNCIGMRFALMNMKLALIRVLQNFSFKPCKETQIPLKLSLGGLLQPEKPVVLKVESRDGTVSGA

SMILES | Ki (CYP3A4 [1]; [4]) [nM] | Ki (CYP3A4 [1]; [5]) [nM] | IC50 (CYP3A4 [2]) [nM] | IC50 (CYP3A4 [3]) [nM]
CC(C)(C)OC(=O)N1CC2(CCN(C(=O)c3ccccc3S(=O)(=O)Nc3cccnc3)CC2)C1 [Example 10, tert-butyl 7-{2-[(pyridin-3-ylamino)sulfonyl]benzoyl}-2,7-diazaspiro[3.5]nonane-2-carboxylate] | > 1000 | 558 | > 750 | 279
CC(C)(C)OC(=O)N1CCC2(CC1)CN(C(=O)c1ccccc1S(=O)(=O)Nc1cccnc1)C2 [Example 11, tert-butyl 2-{2-[(pyridin-3-ylamino)sulfonyl]benzoyl}-2,7-diazaspiro[3.5]nonane-7-carboxylate] | > 1000 | 563 | > 750 | > 750
O=C(NCc1ccccc1)c1ccccc1S(=O)(=O)Nc1cccnc1 [Example 12, N benzyl-2-[(pyridin-3-ylamino)sulfonyl]benzamide] | 270 | 10.5 | 29 | 31
CCCCNC(=O)c1ccccc1S(=O)(=O)Nc1cncc(OC)c1 [Example 17, N-butyl-2-{[(5-methoxypyridin-3-yl)amino]sulfonyl}benzamide] | 133 | – | 62 | 26
CCCCNC(=O)c1ccccc1S(=O)(=O)Nc1cnccc1OC [Example 19, N-butyl-2-{[(4-methoxypyridin-3-yl)amino]sulfonyl}benzamide] | 329 | – | 169 | 69
O=C(NC1(CO)CCCC1)c1ccccc1S(=O)(=O)Nc1cccnc1 [Example 23, N-[1-(hydroxymethyl)cyclo-pentyl]-2-[(pyridin-3-ylamino)sulfonyl]benzamide] | > 1000 | 280 | 325 | 103
CCCCNC(=O)c1ccccc1S(=O)(=O)Nc1cncc(C#N)c1 [Example 24, N-butyl-2-{[(5-cyanopyridin-3-yl)amino]sulfonyl}benzamide] | > 1000 | – | > 750 | 567
CC1CC(C)CN(C(=O)c2ccccc2S(=O)(=O)Nc2cccnc2)C1 (stereo not shown) [Example 25, 2-[(3,5-dimethylpiperidin-1-yl)carbonyl]-N-pyridin-3-ylbenzenesulfonamide] | 239 | – | 77 | 45
COC1CCN(C(=O)c2ccccc2S(=O)(=O)Nc2cccnc2)CC1 [Example 26, 2-[(4-methoxypiperidin-1-yl)carbonyl]-N-pyridin-3-ylbenzenesulfonamide] | > 1000 | – | 691 | 494
C[C@@H]1CN(C(=O)c2ccccc2S(=O)(=O)Nc2cccnc2)C[C@H](C)O1 [Example 27, 2-{[(2R,6S)-2,6-dimethylmorpholin-4-yl]carbonyl}-N-pyridin-3-ylbenzenesulfonamide] | > 1000 | – | > 750 | 658
CCCCNC(=O)c1ccccc1S(=O)(=O)Nc1cncc(C)c1 [Example 31, N-butyl-2-{[(5-methylpyridin-3-yl)amino]sulfonyl}benzamide] | 70.1 | – | 38 | 23
CC(C)(CN1CCOCC1)NC(=O)c1ccccc1S(=O)(=O)Nc1cccnc1 [Example 33, N-(1,1-dimethyl-2-morpholin-4-ylethyl)-2-[(pyridin-3-ylamino)sulfonyl]benzamide] | > 1000 | – | 473 | 111
CC(C)(COCc1ccccc1)NC(=O)c1ccccc1S(=O)(=O)Nc1cccnc1 [Example 34, N-[2-(benzyloxy)-1,1-dimethylethyl]-2-[(pyridin-3-ylamino)sulfonyl]benzamide] | > 1000 | – | > 750 | > 750
CCOC(=O)N1CCN(C(=O)c2ccccc2S(=O)(=O)Nc2cccnc2)CC1 [Example 36, ethyl 4-{2-[(pyridin-3-ylamino)sulfonyl]benzoyl} piperazine-1-carboxylate] | > 1000 | – | > 750 | > 750
CN(C)CCNC(=O)c1ccccc1S(=O)(=O)Nc1cccnc1 [Example 37] | > 1000 | – | > 750 | > 750
CCC(C)(C)NC(=O)c1ccccc1S(=O)(=O)Nc1cccnc1 [Example 38, N-(1,1-dimethylpropyl)-2-[(pyridin-3-ylamino)sulfonyl]benzamide] | 644 | – | 84 | 68
CC(C)(CO)NC(=O)c1ccccc1S(=O)(=O)Nc1cccnc1 [Example 39, N-(2-hydroxy-1,1-dimethylethyl)-2-[(pyridin-3-ylamino)sulfonyl]benzamide] | > 1000 | – | > 500 | > 500
CCN(CCn1cccn1)C(=O)c1ccccc1S(=O)(=O)Nc1cccnc1 [Example 40, N-ethyl-N-[2-(1H-pyrazol-1-yl)ethyl]-2-[(pyridin-3-ylamino)sulfonyl]benzamide] | > 1000 | – | 340 | 179
CC(C)CCNC(=O)c1ccccc1S(=O)(=O)Nc1cccnc1 [Example 42, N-(3-methylbutyl)-2-[(pyridin-3-ylamino)sulfonyl]benzamide] | 378 | 22.5 | 51.5 | 35.9
O=C(NCc1cccc(F)c1)c1ccccc1S(=O)(=O)Nc1cccnc1 [Example 43, N-(3-fluorobenzyl)-2-[(pyridin-3-ylamino)sulfonyl]benzamide] | 269 | 16.5 | 21.7 | 13.4
CC(C)(C)CNC(=O)c1ccccc1S(=O)(=O)Nc1cccnc1 [Example 44, N-(2,2-dimethylpropyl)-2-[(pyridin-3-ylamino)sulfonyl]benzamide] | 617 | – | 167 | 72
COc1cccc(OC)c1CNC(=O)c1ccccc1S(=O)(=O)Nc1cccnc1 [Example 45, N-(2,6-dimethoxybenzyl)-2-[(pyridin-3-ylamino)sulfonyl]benzamide] | 382 | – | 42 | 20

Second part, the compound after the results:

Ki (CYP3A4 [1]; [4]) [nM] | Ki (CYP3A4 [1]; [5]) [nM] | IC50 (CYP3A4 [2]) [nM] | IC50 (CYP3A4 [3]) [nM] | SMILES
433 | – | 117 | 65 | COc1cncc(NS(=O)(=O)c2ccccc2C(=O)N2CCCCC2)c1 [Example 16, N-(5-methoxypyridin-3-yl)-2-(piperidin-1-ylcarbonyl)benzenesulfonamide]
570 | – | 349 | 146 | COc1ccncc1NS(=O)(=O)c1ccccc1C(=O)N1CCCCC1 [Example 18, N-(4-methoxypyridin-3-yl)-2-(piperidin-1-ylcarbonyl)benzenesulfonamide]
> 1000 | – | 445 | 379 | O=C(c1ccccc1S(=O)(=O)Nc1cccnc1)N1CCCC1 [Example 20, N-pyridin-3-yl-2-(pyrrolidin-1-ylcarbonyl)benzenesulfonamide]
> 1000 | – | > 750 | > 750 | O=C(c1ccccc1S(=O)(=O)Nc1cccnc1)N1CCOCC1 [Example 21, 2-(morpholin-4-ylcarbonyl)-N-pyridin-3-ylbenzenesulfonamide]
> 1000 | – | > 750 | > 750 | N#Cc1cncc(NS(=O)(=O)c2ccccc2C(=O)N2CCCCC2)c1 [Example 22, N-(5-cyanopyridin-3-yl)-2-(piperidin-1-ylcarbonyl)benzenesulfonamide]
> 1000 | – | > 750 | > 750 | O=C(c1ccccc1S(=O)(=O)Nc1cccnc1)N1CCC(O)CC1 [Example 28, 2-[(4-hydroxypiperidin-1-yl)carbonyl]-N-pyridin-3-ylbenzenesulfonamide]
324 | – | 172 | 76 | CC1(C)CCCN(C(=O)c2ccccc2S(=O)(=O)Nc2cccnc2)C1 [Example 29, 2-[(3,3-dimethylpiperidin-1-yl)carbonyl]-N-pyridin-3-ylbenzenesulfonamide]
690 | – | 125 | 56 | Cc1cncc(NS(=O)(=O)c2ccccc2C(=O)N2CCCCC2)c1 [Example 30, N-(5-methylpyridin-3-yl)-2-(piperidin-1-ylcarbonyl)benzenesulfonamide]
> 1000 | – | > 750 | > 750 | CN1CCN(C(=O)c2ccccc2S(=O)(=O)Nc2cccnc2)CC1 [Example 35, 2-[(4-methylpiperazin-1-yl)carbonyl]-N-pyridin-3-ylbenzenesulfonamide]
486 | 30.3 | 83.4 | 62.8 | CC1CCN(C(=O)c2ccccc2S(=O)(=O)Nc2cccnc2)CC1 [Example 41, 2-[(4-methylpiperidin-1-yl)carbonyl]-N-pyridin-3-ylbenzenesulfonamide]
